The source of these data is patent publication US11708359B2, “Monoacylglycerol lipase modulators” (Janssen Pharmaceutica NV, priority 2020, dated 2023).

Chain of human MGL from HeLa cells (Q99685 whole entry): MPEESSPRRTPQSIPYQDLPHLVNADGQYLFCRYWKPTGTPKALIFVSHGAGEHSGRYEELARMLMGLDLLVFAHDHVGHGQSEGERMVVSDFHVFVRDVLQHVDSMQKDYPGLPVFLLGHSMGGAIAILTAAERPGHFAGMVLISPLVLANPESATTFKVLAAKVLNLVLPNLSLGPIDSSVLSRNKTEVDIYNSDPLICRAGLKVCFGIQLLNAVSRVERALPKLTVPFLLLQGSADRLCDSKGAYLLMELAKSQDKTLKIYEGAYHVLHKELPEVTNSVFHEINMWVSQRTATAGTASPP

This assay has as its target human MGL from HeLa cells (Homo sapiens (Human), UniProt Q99685). In words: MGL in vitro activity assay ([glycerol-1,3-3H]-oleoyl glycerol cleavage, activated carbon filter). The format is biochemical. The settings on record: 300 nM [Glycerol-1,3-3H]-oleoyl glycerol, endogenously expressed MGL from HeLa cells, one hour incubation; read-out: MGL IC50. The procedure, abridged:
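Endogenous MGL in HeLa cells or homogenates was incubated with compound and 300 nM [glycerol-1,3-3H]-oleoyl glycerol for one hour. Reactions were filtered through activated carbon, and tritiated glycerol in the flow-through was counted as a measure of activity.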
Broadly, the IC50 is the midpoint of a concentration-inhibition curve. As to `CCc1cc([C@H]2[C@@H]3CN(C(=O)[C@H]4C[C@]5(COC(=O)N5)C4)C[C@@H]32)ccc1F` [Example 111, (2s,4S)-2-((1R,5S,6S)-6-(3-Ethyl-4-fluorophenyl)-3-azabicyclo[3.1.0]hexane-3-carbonyl)-7-oxa-5-azaspiro[3.4]octan-6-one], the IC50 was 11 nM.
Consider `Cc1c([C@H]2[C@@H]3CN(C(=O)[C@H]4C[C@]5(COC(=O)N5)C4)C[C@@H]32)cccc1C(F)(F)F` [Example 113], for which the IC50 worked out at 78 nM.
Turning to `Cc1ccc([C@H]2[C@@H]3CN(C(=O)[C@H]4C[C@]5(COC(=O)N5)C4)C[C@@H]32)cc1OC(F)(F)F` [Example 115, (2s,4S)-2-((1R,5S,6S)-6-(4-Methyl-3-(trifluoromethoxy)phenyl)-3-azabicyclo[3.1.0]hexane-3-carbonyl)-7-oxa-5-azaspiro[3.4]octan-6-one], the IC50 stood at 5.2 nM.
With `CC(C)(C)c1cccc([C@H]2[C@@H]3CN(C(=O)[C@H]4C[C@]5(COC(=O)N5)C4)C[C@@H]32)n1` [Example 116, (2s,4S)-2-((1R,5S,6R)-6-(6-(tert-Butyl)pyridin-2-yl)-3-azabicyclo[3.1.0]hexane-3-carbonyl)-7-oxa-5-azaspiro[3.4]octan-6-one] the figure was 5.2 nM.
